This experiment relates to MDA-MB-231 human triple negative breast cancer cells. As to the kind of experiment: In vitro cytotoxicity (MTS) of ZiPP-PTX conjugates. The class given is cell-based. To be noted: MDA-MB-231, 72 hours of drug treatment, concentration in terms of the drug, read-out: IC50 (concentration of the drug that reduced cell viability by 50%). As to the method: In vitro cytotoxicity of ZiPP-PTX conjugates. In vitro cytotoxicity was done on MDA-MB-231 human triple negative breast cancer cells. 3×10^3 cells were seeded per 100 μL of media in Falcon™ 96-well cell culture plates (BD; Franklin Lakes, N.J.). The cells were allowed to adhere for 16-18 hours before being treated with free PTX and ZiPP-PTX at concentrations that ranged from sub-nanomolar to high-micromolar range. After 72 hours of drug treatment, 20 μL of […] (MTS) reagent (CellTiter 96 AQueous™ Promega; Madison, Wis.) was added to each well and incubated for an additional 2 hours. A dose-response curve for free drug and ZiPP-drug conjugate was constructed by measuring the absorbance of each well at 490 nm with a Victor3 microplate reader (Perkin Elmer; Waltham, Mass.). The 50% inhibitory concentration, IC50, was determined by fitting data to the following equation (Andrew MacKay, J., et al. Nat. Mater. 2009, 8, 993-999):
[formula] where V is viability of cells, Ctreatment is drug concentration, and p is slope of the dose response curve. This IC50 value is used to evaluate the potency of the conjugates.
The in vitro cytotoxicity of Zipp-PTX was measured by looking at the cell viability over a range of concentrations as a function of time. […]

`CC(=O)O[C@H]1C(=O)[C@@]2(C)[C@H]([C@H](OC(=O)c3ccccc3)[C@]3(O)C[C@H](OC(=O)[C@H](O)[C@@H](NC(=O)c4ccccc4)c4ccccc4)C(C)=C1C3(C)C)[C@]1(OC(C)=O)CO[C@@H]1C[C@@H]2O` [free drug, Paclitaxel]: the IC50 was approximately 2 nM.

The values are drawn from patent US11458205B2, “Genetically encoded intrinsically disordered stealth polymers for delivery and methods of using same” (Duke University, priority 2015, dated 2022).
